According to patent US20220081481A1, “USE OF AGENTS CAPABLE OF INDUCING LC3-ASSOCIATED PHAGOCYTOSIS FOR TREATING SUSTAINED INFLAMMATION IN PATIENTS SUFFERING FROM CHRONIC LIVER DISEASE” (INSERM (INSTITUT NATIONAL DE LA SANTÉ ET DE LA RECHERCHE …, priority 2019, published 2022):
Ends that are not written are not given here.

Tests used:
[1] = system: CD14+ cells from patients and healthy donors PBMC; assay: Flow cytometry of IL8+ production in CD14+ cells of PBMC; format: cell-based, human; settings: for number of CD14+IL8+ monocytes: cirrhotic monocytes vs control-treated cells from healthy donors, 10 mM 3-MA, 10 μM DPI, 30 μM N8, 4 hrs, FIG. 1B; for inflammatory signature in blood monocytes: healthy donors and patients, prominent increase in cells from patients, 4 hrs at 37° C., FIG. 1B and 1C
Procedure: FIG. 1: Inhibition of LAP components enhances the inflammatory signature in blood monocytes from patients with cirrhosis. (A). Inverse correlation between circulating C-Reactive Protein (CRP) levels and the number of LC3+ pHrodo+ phagosomes containing E. Coli bioparticles in blood monocytes from patients with cirrhosis (n=14). *p=0.005, r=-0.7 for LC3+ pHrodo+ phagosomes number vs CRP. (B). PBMC were incubated for 4 hrs at 37° C. with either vehicle, 10 mM 3-MA, 10 μM DPI, 30 μM N8 or control mutant […] peptides Percentage of IL8+ production in CD14+ cells from patients (n=8) and healthy donors (n=6) PBMC. (C). RT-PCR analysis of inflammatory gene expression in blood monocytes from healthy donors (n=6-8) and cirrhotic patients (n=6-11). Results are expressed as fold over respective control. *p<0.05, **p<0.001 for healthy vs cirrhotic. Statistical analysis was performed using Spearman correlation test (A), Mann-Whitney (b, for comparison between healthy and cirrhosis) and Wilcoxon matched-pairs signed rank test (B, for treatment). Peripheral blood mononuclear cells (PBMC) and monocyte isolation. PBMC were prepared from the blood of cirrhotic patients and healthy donors, using Ficoll density gradient centrifugation (Ficoll PaqueTM-plus, GE Healthcare, 17-1440-02), as previously described^43. Cell treatment. Human monocytes, THP1-XBlueTM-CD14 (Invivogen, Catalog #[…] THP1-FcγRIIA+-CD14+(kindly provided by Novimmune) monocytes were used. When indicated cells were exposed to either 30 μM chloroquine diphosphate (Sigma, C6628), 10 mM 3-Methyladenine (3-MA, Sigma, M9281-100 mg), 10 mM Diphenyleneiodonium chloride (DPI, Sigma, D2926-10 mg), or 10 mg/ml IVIg (Privigen, 100 mg/ml) for 4 hrs at 37° C., as indicated. […] In some experiments, cells were exposed to the preformed complex (10 μg/ml of mouse anti-hFcγRII mAb (clone AT-10, Santa Cruz, sc-13527) F(ab')2 fragments+20 μg/ml goat anti-mouse anti-kappa F(ab')2 fragments (Southern Biotech, 1052-01) or to 100 μg/ml of anti-hFcγRIIA mAb F(ab')2 fragments (clone IV.3), purified as we previously described^26. Flow cytometry. For surface and intracellular staining, PBMC (1×10^6) were centrifuged at 4° C. at 500 g for 5 min and stained in the dark for 30 min at 4° C. in flow cytometry staining buffer (5% FCS-PBS) containing fluorochrome-conjugated antibodies (APC-CD14, clone HCD14, Biolegend, 325608), CD11b-PE-vio 770 (clone REA592, Miltenyi Biotec, 130-109-287), CD16 Brilliant violet 605 (clone3G8, 302040, Biolegend) and FITC-FcγRIIA (clone […] Technologies, 60012FI). […] Data acquisition was performed using a BD Biosciences LSR Fortessa cytometer and data were analysed using FlowJo analysis software (Tree Star).

[2] = system: blood monocytes from healthy donors and cirrhotic patients; assay: RT-PCR analysis of inflammatory gene expression in blood monocytes; format: cell-based, human; settings: cirrhotic monocytes vs control-treated cells from healthy donors; 10 mM 3-MA, 10 μM DPI, 30 μM N8; FIG. 1C
Procedure: FIG. 1: Inhibition of LAP components enhances the inflammatory signature in blood monocytes from patients with cirrhosis. (A). Inverse correlation between circulating C-Reactive Protein (CRP) levels and the number of LC3+ pHrodo+ phagosomes containing E. Coli bioparticles in blood monocytes from patients with cirrhosis (n=14). *p=0.005, r=-0.7 for LC3+ pHrodo+ phagosomes number vs CRP. (B). PBMC were incubated for 4 hrs at 37° C. with either vehicle, 10 mM 3-MA, 10 μM DPI, 30 μM N8 or control mutant […] peptides Percentage of IL8+ production in CD14+ cells from patients (n=8) and healthy donors (n=6) PBMC. (C). RT-PCR analysis of inflammatory gene expression in blood monocytes from healthy donors (n=6-8) and cirrhotic patients (n=6-11). Results are expressed as fold over respective control. *p<0.05, **p<0.001 for healthy vs cirrhotic. Statistical analysis was performed using Spearman correlation test (A), Mann-Whitney (b, for comparison between healthy and cirrhosis) and Wilcoxon matched-pairs signed rank test (B, for treatment). Human blood monocytes. Human monocytes were isolated from freshly isolated PBMC, using EasySep human monocyte enrichment kit (STEMCELL Technologies, 19058), and CD14+CD16+ monocytes were isolated by immunomagnetic negative selection according to the manufacturer's instructions. Cell treatment. […]

Molecule | number of CD14+IL8+ monocytes [1] | inflammatory signature in blood monocytes [1] | gene expression of cytokines and chemokines [2]
N8 peptide: Tat-conjugated peptide of eight N-terminal amino acids (3-10) of p22phox that blocks the Rubicon-p22phox interaction (QIEWAMWA; also: Tat cell-penetrating peptide conjugate, attachment not given here; UniProt P13498 3-10, looked up, fragment) | significantly higher | enhanced | significantly higher
Cn1cnc(N)c2ncnc1-2 [3-MA, 3-Methyladenine] | significantly higher | enhanced | significantly higher
